# Source: article PMC11992225, “Antibacterial compounds against non-growing and intracellular bacteria” (npj Antimicrobials and Resistance, 2025)
# Where two headings read alike, the source gives them in different places.
# What was measured:
# S. aureus DSM2569 = assay: MIC, standard microdilution assay, growing S. aureus; assay type: cell-based, Staphylococcus aureus; details: S. aureus, CA-MHB pH 7.4, read-out: MIC (μM) CA-MHB
# Method in brief: (§1)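 MICs come from microdilution in CA-MHB/40 mM HEPES pH 7.4 for the UPEC, Pseudomonas and Staphylococcus strains, and in TSB for Shigella. UPEC also tested in LPM/30 mM MES pH 5.5.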
# E. coli CFT073 (UPEC) = assay: MIC, standard microdilution assay, growing UPEC; assay type: cell-based, Escherichia coli; details: E. coli
# Method in brief: as §1
# S. flexneri 5a M90T = assay: MIC in tryptic soy broth, S. flexneri; assay type: cell-based, Shigella flexneri
# Method in brief: as §1
# non-growing UPEC CFT073 = assay: Dilution-regrowth assay (screen, hit validation, dose-response) on stationary-phase UPEC; assay type: cell-based, Escherichia coli; details: for EC50: Escherichia coli; for activity against non-growing UPEC in LPM (pH 5.5) compared to 1:4 CA-MHB (pH 7.4): regrowth delay and killing, Figs. 2 and 3; for Regrowth, OD600 at 6h or 8h after dilution into drug-free medium: average
# Method in brief: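 Regrowth (OD600 after 6 h, 37 °C) of diluted non-growing CFT073, following 24 h compound treatment of 24 h stationary cultures, defines activity relative to untreated control. Screen at 20 µM, validation at 20, 10, 5 µM (duplicates), dose–response in three biological replicates fitted by five-parameter logistic.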
# P. aeruginosa DSM1117 = assay: MIC, standard microdilution assay, growing P. aeruginosa; assay type: cell-based, Pseudomonas aeruginosa; details: Pseudomonas aeruginosa, DSM1117; P. aeruginosa; CA-MHB pH 7.4; read-out: MIC (μM) CA-MHB
# Method in brief: as §1
# [1] = test system: non-growing P. aeruginosa DSM1117; assay: Dilution-regrowth assay (OD600, start-growth-time) on stationary-phase P. aeruginosa; assay type: cell-based, Pseudomonas aeruginosa; details: P. aeruginosa; for Regrowth, OD600 at 6h or 8h after dilution into drug-free medium: average
# Protocol: To determine the spectrum of activity of the compounds that were effective against non-growing UPEC, we further assessed their efficacy against the well-characterized Gram-negative and Gram-positive reference strains P. aeruginosa DSM1117 and S. aureus DSM2569, respectively. The cultures were grown and treated for 24 h in 1:4 CA-MHB (pH 7.4). […].
# For better characterization of the compounds causing the strongest regrowth delay, we performed the regrowth step of the dilution-regrowth experiments on a plate reader, measuring the OD600 at 20-min intervals for over 20 h instead of using an endpoint measurement. This approach allowed us to capture the time when cultures reached a threshold optical density (start-growth-time, SGT[15]).
# Overnight cultures of UPEC, P. aeruginosa and S. aureus were grown in test tubes containing 3 ml of LB broth (~16 h), then diluted 1:100 into either 1:4 diluted CA-MHB medium buffered with 40 mM HEPES (pH 7.4) or, in case of UPEC, into LPM medium[25] supplemented with 49 µM MgCl2 and buffered with 30 mM MES (pH 5.5). The cultures were incubated for 24 h in non-baffled Erlenmeyer flasks at 37 °C with shaking at 200 rpm.
# For P. aeruginosa and S. aureus, dose–response analysis was conducted in 96-well plates with a 200 μl assay volume, following the procedure used for screening assay validation experiments. Aliquots of the 39 compounds active against non-growing UPEC were obtained from SelleckChem and MedChem Express. Stock solutions were prepared and stored according to the manufacturers’ instructions, then diluted in 10% DMSO before use. Cultures were incubated for 24 h in 1:4 diluted CA-MHB medium under the same conditions used for UPEC cultivation. In preliminary experiments, each compound was tested at a concentration of 20 μM in the dilution-regrowth assay with 4 technical replicates. Regrowth was monitored using a microplate reader at 37 °C with continuous shaking, and OD600 was recorded every 20 min. The time at which OD600 exceeded the threshold of 0.12 was recorded as the Start_Growth-Time.
# The statistical analysis of all data, as well as EC50 and IC50 determination, was conducted using GraphPad Prism 10.2.3. Statistical significance of the drug effects was assessed using a one-way ANOVA followed by Dunnett’s test, comparing each treatment to the drug-free control. Statistical significance of the differences in chemical characteristics between the hit compounds and the Prestwick library was assessed using a Mann–Whitney test. Statistical significance was set at P ≤ 0.05. A five-parameter logistic equation was used for asymmetric sigmoidal curve fitting and for EC50 and IC50 determination. The Venn diagram in Fig. 1F was prepared using BioVenn web application. Characteristics of the chemical and physical properties of Prestwick library compounds were obtained from Supplementary Table S1 from reference. Characteristics of the hit compounds not included in the Prestwick library were retrieved from the PubChem database.
# [2] = Escherichia coli, pH 7.4, CA-MHB, read-out: MIC (μM) CA-MHB
# [3] = E. coli in 1:4 CA-MHB (pH 7.4), drug concentration 0.25
# [4] = E. coli in 1:4 CA-MHB (pH 7.4), drug concentration 0.5
# [5] = E. coli in 1:4 CA-MHB (pH 7.4), drug concentration 1
# [6] = E. coli in 1:4 CA-MHB (pH 7.4), drug concentration 2.5
# [7] = E. coli in 1:4 CA-MHB (pH 7.4), drug concentration 5
# [8] = E. coli in 1:4 CA-MHB (pH 7.4), drug concentration 10
# [9] = E. coli in 1:4 CA-MHB (pH 7.4), drug concentration 30
# [10] = E. coli in LPM (pH 5.5), drug concentration 0.25
# [11] = E. coli in LPM (pH 5.5), drug concentration 0.5
# [12] = E. coli in LPM (pH 5.5), drug concentration 1
# [13] = E. coli in LPM (pH 5.5), drug concentration 2.5
# [14] = E. coli in LPM (pH 5.5), drug concentration 5
# [15] = E. coli in LPM (pH 5.5), drug concentration 10
# [16] = E. coli in LPM (pH 5.5), drug concentration 30
# [17] = 1:4 CA-MHB pH 7.4 (black curve), medium assigned by comparison with Dataset 1, read-out: EC50 (regrowth inhibition curve, Fig. S4)
# [18] = E. coli, pH 7.4, regrowth delay of non-growing bacteria, 1:4 CA-MHB, 24 h treatment, OD600 6 h after 2500-fold dilution, read-out: EC50
# [19] = LPM pH 5.5 (red curve), medium assigned by comparison with Dataset 1, read-out: EC50 (regrowth inhibition curve, Fig. S4)
Molecule,"MIC (S. aureus DSM2569; Staphylococcus aureus, DSM2569) [µM]",MIC (E. coli CFT073 (UPEC); [2]) [µM],"Regrowth, OD600 at 6h or 8h after dilution into drug-free medium (average) (non-growing UPEC CFT073; [3])","Regrowth, OD600 at 6h or 8h after dilution into drug-free medium (average) (non-growing UPEC CFT073; [4])","Regrowth, OD600 at 6h or 8h after dilution into drug-free medium (average) (non-growing UPEC CFT073; [5])","Regrowth, OD600 at 6h or 8h after dilution into drug-free medium (average) (non-growing UPEC CFT073; [6])","Regrowth, OD600 at 6h or 8h after dilution into drug-free medium (average) (non-growing UPEC CFT073; [7])","Regrowth, OD600 at 6h or 8h after dilution into drug-free medium (average) (non-growing UPEC CFT073; [8])","Regrowth, OD600 at 6h or 8h after dilution into drug-free medium (average) (non-growing UPEC CFT073; [9])","Regrowth, OD600 at 6h or 8h after dilution into drug-free medium (average) (non-growing UPEC CFT073; [10])","Regrowth, OD600 at 6h or 8h after dilution into drug-free medium (average) (non-growing UPEC CFT073; [11])","Regrowth, OD600 at 6h or 8h after dilution into drug-free medium (average) (non-growing UPEC CFT073; [12])","Regrowth, OD600 at 6h or 8h after dilution into drug-free medium (average) (non-growing UPEC CFT073; [13])","Regrowth, OD600 at 6h or 8h after dilution into drug-free medium (average) (non-growing UPEC CFT073; [14])","Regrowth, OD600 at 6h or 8h after dilution into drug-free medium (average) (non-growing UPEC CFT073; [15])","Regrowth, OD600 at 6h or 8h after dilution into drug-free medium (average) (non-growing UPEC CFT073; [16])",EC50 (non-growing UPEC CFT073; [17]) [µM],EC50 (non-growing UPEC CFT073; [18]) [µM],EC50 (non-growing UPEC CFT073; [19]) [µM],activity against non-growing UPEC in LPM (pH 5.5) compared to 1:4 CA-MHB (pH 7.4) (non-growing UPEC CFT073),further results
CCCCC(CC)CNC(=N)NC(=N)NCCCCCCNC(=N)NC(=N)NCC(CC)CCCC (stereo not shown) [Alexidine],1,2,0.643,0.630,0.631,0.636,0.622,0.568,0.074,0.604,0.591,0.602,0.604,0.576,0.067,0.069,23.4,15.6,7.18,potentiated by the low pH,"MIC (S. flexneri 5a M90T; Shigella flexneri, 5AM90T, read-out: MIC (μM) TSB): 1 µM"
CCCCCCCCN=c1ccn(CCCCCCCCCCn2ccc(=NCCCCCCCC)cc2)cc1 [Octenidine],1,1,,,,,,0.188,0.074,,,,,,0.071,0.077,7.95,7.67,4.41,potentiated by the low pH,"MIC (P. aeruginosa DSM1117): 4 µM; Regrowth, OD600 at 6h or 8h after dilution into drug-free medium ([1]; concentration 0.1): 0.666; Regrowth, OD600 at 6h or 8h after dilution into drug-free medium ([1]; concentration 0.5): 0.602; Regrowth, OD600 at 6h or 8h after dilution into drug-free medium ([1]; concentration 2.5): 0.656; Regrowth, OD600 at 6h or 8h after dilution into drug-free medium (average) ([1]; drug concentration 10): 0.533; EC50 ([1]; Pseudomonas aeruginosa, DSM1117, regrowth delay of non-growing bacteria, 1:4 CA-MHB pH 7.4, 24 h treatment, OD600 8 h after dilution, read-out: EC50): 9.99 µM; MIC (E. coli CFT073 (UPEC); Escherichia coli, LPM pH 5.5, read-out: MIC): 0.5 µM; Regrowth, OD600 at 6h or 8h after dilution into drug-free medium (non-growing UPEC CFT073; E. coli in 1:4 CA-MHB (pH 7.4), concentration 0.25): 0.612; Regrowth, OD600 at 6h or 8h after dilution into drug-free medium (non-growing UPEC CFT073; E. coli in 1:4 CA-MHB (pH 7.4), concentration 0.5): 0.602; Regrowth, OD600 at 6h or 8h after dilution into drug-free medium (non-growing UPEC CFT073; E. coli in 1:4 CA-MHB (pH 7.4), concentration 1): 0.603; Regrowth, OD600 at 6h or 8h after dilution into drug-free medium (non-growing UPEC CFT073; E. coli in 1:4 CA-MHB (pH 7.4), concentration 2.5): 0.605; Regrowth, OD600 at 6h or 8h after dilution into drug-free medium (non-growing UPEC CFT073; E. coli in 1:4 CA-MHB (pH 7.4), concentration 5): 0.549; Regrowth, OD600 at 6h or 8h after dilution into drug-free medium (non-growing UPEC CFT073; E. coli in LPM (pH 5.5), concentration 0.25): 0.551; Regrowth, OD600 at 6h or 8h after dilution into drug-free medium (non-growing UPEC CFT073; E. coli in LPM (pH 5.5), concentration 0.5): 0.543; Regrowth, OD600 at 6h or 8h after dilution into drug-free medium (non-growing UPEC CFT073; E. coli in LPM (pH 5.5), concentration 1): 0.551; Regrowth, OD600 at 6h or 8h after dilution into drug-free medium (non-growing UPEC CFT073; E. coli in LPM (pH 5.5), concentration 2.5): 0.544; Regrowth, OD600 at 6h or 8h after dilution into drug-free medium (non-growing UPEC CFT073; E. coli in LPM (pH 5.5), concentration 5): 0.198"
Plicamycin,,,0.612,0.607,0.618,0.623,0.619,0.615,0.623,0.574,0.571,0.572,0.561,0.562,0.546,0.390,,,,potentiated by the low pH,"MIC (S. aureus DSM2569): 0.25 µM; MIC (E. coli CFT073 (UPEC); LPM pH 5.5, read-out: MIC): 32 µM; MIC (E. coli CFT073 (UPEC); pH 7.4, CA-MHB, read-out: MIC (μM) CA-MHB): 160 µM; MIC (μM) TSB (S. flexneri 5a M90T; S. flexneri, extracellular bacteria in TSB): >128 µM"
